Consider 14 compounds from patent publication US20230167073A1 (Teijin Pharma Limited, priority 2020, published 2023).

The experiment addresses T1, Human TRPC6 (Homo sapiens, UniProt Q9Y210).
T1 construct: expressed in transfected cells
T1 sequence (Q9Y210 1-931): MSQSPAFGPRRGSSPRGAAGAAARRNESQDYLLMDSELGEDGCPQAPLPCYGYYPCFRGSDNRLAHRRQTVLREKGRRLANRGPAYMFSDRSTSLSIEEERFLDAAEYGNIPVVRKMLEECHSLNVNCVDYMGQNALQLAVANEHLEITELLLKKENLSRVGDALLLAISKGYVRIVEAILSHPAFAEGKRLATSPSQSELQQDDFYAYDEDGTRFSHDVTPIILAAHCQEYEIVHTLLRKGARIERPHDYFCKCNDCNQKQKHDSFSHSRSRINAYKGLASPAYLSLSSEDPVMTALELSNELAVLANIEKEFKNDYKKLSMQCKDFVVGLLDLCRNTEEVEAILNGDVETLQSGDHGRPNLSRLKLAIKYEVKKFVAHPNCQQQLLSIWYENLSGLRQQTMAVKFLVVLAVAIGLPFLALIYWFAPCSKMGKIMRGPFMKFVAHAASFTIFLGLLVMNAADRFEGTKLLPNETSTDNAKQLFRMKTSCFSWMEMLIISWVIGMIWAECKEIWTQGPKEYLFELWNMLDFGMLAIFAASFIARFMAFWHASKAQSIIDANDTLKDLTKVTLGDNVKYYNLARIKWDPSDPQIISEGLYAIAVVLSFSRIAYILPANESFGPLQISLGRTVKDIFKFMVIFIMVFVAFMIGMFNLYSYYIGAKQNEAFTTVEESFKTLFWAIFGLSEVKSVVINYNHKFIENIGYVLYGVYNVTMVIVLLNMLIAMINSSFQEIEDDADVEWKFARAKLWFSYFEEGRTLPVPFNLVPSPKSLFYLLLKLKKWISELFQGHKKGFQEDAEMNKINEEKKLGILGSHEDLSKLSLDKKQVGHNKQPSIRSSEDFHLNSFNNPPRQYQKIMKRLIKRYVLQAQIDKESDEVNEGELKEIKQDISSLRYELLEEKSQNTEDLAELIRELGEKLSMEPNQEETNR
In words: Evaluation of TRPC6 channel inhibitory activity (2), HEK293 cells with stably introduced human TRPC6, OAG stimulation, FLIPR tetra (Compound Nos. 1293 to 1405). The class given is cell-based. As to conditions: HEK293 cells with stably introduced human TRPC6, OAG 50 μM/0.5% DMSO, read-out: Inhibitory activity (pIC50 class) (converted). The method, boiled down: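 Calcium-dye-loaded HEK293 cells stably expressing human TRPC6 were pretreated with compound for 25 min, then stimulated with 50 μM OAG (0.5% DMSO) in Ca ringer buffer pH 7.2 with 2 mM CaCl2. Background-subtracted FLIPR calcium peaks were normalized to OAG (100%) and buffer (0%); pIC50 came from four-parameter logistic fit, binned as +/++/+++.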
As to `Cn1nc(-c2ccccn2)cc1Oc1cc(C#N)cnc1-c1ccc(CCN)cc1` [compound 1331, 6-[4-(2-aminoethyl)phenyl]-5-(2-methyl-5-pyridin-2-ylpyrazol-3-yl)oxypyridine-3-carbonitrile], the IC50 is over 1000 nM.
To `C[C@@H](N)c1ccc(-c2ccc(Cl)cc2Oc2cc(-c3ccccn3)nn2C)nc1` [compound 1380, (1R)-1-[6-[4-chloro-2-(2-methyl-5-pyridin-2-ylpyrazol-3-yl)oxyphenyl]pyridin-3-yl]ethanamine] belongs under 10 nM; to `Cn1nc(C2CC2)cc1Oc1cc(Cl)cnc1-c1ccc([C@@H](F)CN)cn1` [compound 1370, (2R)-2-[6-[5-chloro-3-(5-cyclopropyl-2-methylpyrazol-3-yl)oxypyridin-2-yl]pyridin-3-yl]-2-fluoroethanamine], 10 to 1000 nM.
`Cn1nc(C2CCOCC2)cc1Oc1cc(Cl)ccc1-c1ncc([C@@H](F)CN)cn1` [compound 1360, (2R)-2-[2-[4-chloro-2-[2-methyl-5-(oxan-4-yl)pyrazol-3-yl]oxyphenyl]pyrimidin-5-yl]-2-fluoroethanamine]: the IC50 was under 10 nM.
On to `Cc1cc(Oc2cc(C#N)ccc2-c2ncc3c(n2)CNC3)cc(N2CCOCC2)n1` [compound 1392, 4-(6,7-dihydro-5H-pyrrolo[3,4-d]pyrimidin-2-yl)-3-(2-methyl-6-morpholin-4-ylpyridin-4-yl)oxybenzonitrile], for which the IC50 is over 1000 nM.
With `Cn1nc(-c2ccccn2)cc1Oc1cc(C#N)ccc1-c1ncc([C@H](F)CN)cn1` [compound 1296, 4-[5-[(1S)-2-amino-1-fluoroethyl]pyrimidin-2-yl]-3-(2-methyl-5-pyridin-2-ylpyrazol-3-yl)oxybenzonitrile] the figure was under 10 nM; with `Cn1nc(-c2ccccn2)cc1Oc1cc(Cl)cnc1-c1ncc(CN)cn1` [compound 1351, [2-[5-chloro-3-(2-methyl-5-pyridin-2-ylpyrazol-3-yl)oxypyridin-2-yl]pyrimidin-5-yl]methanamine], over 1000 nM; with `Cc1cc(Oc2cc(Cl)cnc2-c2ccc([C@H](F)CN)cn2)cc(N2CCOCC2)n1` [compound 1398], under 10 nM.
To `Cn1nc(C2CCOCC2)cc1Oc1cc(C#N)ccc1-c1ccc([C@@H](F)CN)cn1` [compound 1368, 4-[5-[(1R)-2-amino-1-fluoroethyl]pyridin-2-yl]-3-[2-methyl-5-(oxan-4-yl)pyrazol-3-yl]oxybenzonitrile] belongs under 10 nM; to `Cc1nc(Oc2cc(Cl)ccc2-c2ncc(CCN)cn2)cc(N2CCOCC2)n1` [compound 1378, 2-[2-[4-chloro-2-(2-methyl-6-morpholin-4-ylpyrimidin-4-yl)oxyphenyl]pyrimidin-5-yl]ethanamine], 10 to 1000 nM.
With `Cn1nc(-c2ccccn2)cc1Oc1cc(Cl)ccc1-c1ncc([C@H](O)CN)cn1` [compound 1358, (1S)-2-amino-1-[2-[4-chloro-2-(2-methyl-5-pyridin-2-ylpyrazol-3-yl)oxyphenyl]pyrimidin-5-yl]ethanol] the figure was 10 to 1000 nM; with `Cn1nc(C2CC2)cc1Oc1cc(C#N)ccc1-c1ccc(C(F)(F)CN)nc1` [compound 1294, 4-[6-(2-amino-1,1-difluoroethyl)pyridin-3-yl]-3-(5-cyclopropyl-2-methylpyrazol-3-yl)oxybenzonitrile], over 1000 nM.
With `Cc1cc(Oc2cc(Cl)ccc2-c2ccc([C@@H](F)CN)cn2)cc(N2CCOCC2)n1` [compound 1394, (2R)-2-[6-[4-chloro-2-(2-methyl-6-morpholin-4-ylpyridin-4-yl)oxyphenyl]pyridin-3-yl]-2-fluoroethanamine], the IC50 is 10 to 1000 nM.
In the case of `Cc1cc(Oc2cc(Cl)ccc2-c2ccc([C@@H](O)CN)cn2)cc(N2CCOCC2)n1` [compound 1395, (1R)-2-amino-1-[6-[4-chloro-2-(2-methyl-6-morpholin-4-ylpyridin-4-yl)oxyphenyl]pyridin-3-yl]ethanol], the IC50 was under 10 nM.
